{"source": "patent US10717997B2", "about": "“Method for storing gaseous hydrogen through producing methanoate (formate)” (Johann Wolfgang Goethe-Universität, priority 2013, dated 2020)", "tested_on": "cell suspensions of A. woodii", "assay": "Formate production by whole cell catalysis, cell suspensions of A. woodii converting H2 and CO2", "type": "cell-based, Acetobacterium woodii", "details": "ETH2120 30 μM", "procedure": "Cell suspensions of A. woodii (1 mg/ml) were incubated using a gas phase of 0.8×10^5 Pa H2 and 0.2×10^5 Pa CO2 (1A). Adding the Na^+ ionophore ETH2120 (30 μM) gives rise to the production of up to 8 mM formate and the production of acetate stopped (1B). For experiments with whole cells, the inventors used cell suspensions of A. woodii for the conversion of H2 and CO2 to formate. The energy metabolism of A. woodii is strictly sodium ion dependent, and the ATP synthase uses Na^+ as the coupling ion. Thus, by omitting sodium ions in the buffer or by adding sodium ionophores (the inventors used the ionophore ETH2120 in this study), it is possible to switch off the energy metabolism specifically. Cells suspended in imidazole buffer (50 mM imidazole, 20 mM MgSO4, 20 mM KCl, 4 mM DTE, pH 7.0) containing 20 mM NaCl converted H2+CO2 to acetate, and only small amounts of formate were produced from a gas phase of 0.8×10^5 Pa II2 and 0.2×10^5 CO2. […] In agreement with the results obtained from the purified enzyme, foimate production was also observed when hydrogen was absent and the electron donor was CO but with lower rates compared to hydrogen as electron donor.", "note": "“Also recorded” adds a separate entry of the source."}
{"compound": "O=C(COc1ccccc1OCC(=O)N(C1CCCCC1)C1CCCCC1)N(C1CCCCC1)C1CCCCC1", "note": "[ETH2120, N,N,N′,N′-Tetracyclohexyl-1,2-phenylenedioxydiacetamide]", "values": [{"measurement": "production of formate (concentration reached)", "setting": "A. woodii cell suspension (1 mg/ml), gas phase 0.8×10^5 Pa H2 and 0.2×10^5 Pa CO2", "result": "up to 8 mM"}, {"measurement": "acetate production", "setting": "A. woodii cell suspension (1 mg/ml), gas phase 0.8×10^5 Pa H2 and 0.2×10^5 Pa CO2, imidazole buffer with 20 mM NaCl", "result": "stopped; also recorded: ceased almost completely"}, {"measurement": "initial rate of formate production", "setting": "A. woodii cells in imidazole buffer with 20 mM NaCl, gas phase 0.8×10^5 Pa H2 and 0.2×10^5 CO2", "result": 2, "unit": "μmol/min×mg cell protein"}]}
